Read-outs that look alike come from different tables or passages of the source.
Columns and labels:
[1] = tested on: Vero cells; experiment: Toxicity to mammalian cell monolayers; conditions: 0.5 mg in 1 mL DMEM; 24 hrs
[2] = tested on: Y. enterocolitica fur (H1852); assay type: cell-based; conditions: 1 μg/ml
[3] = tested on: M tuber. H37Rv; experiment: Disc diffusion sensitivity test; assay type: cell-based, Mycobacterium tuberculosis; conditions: disc ~50 μg MP
[4] = tested on: M. smegmatis; experiment: Minimal bactericidal concentration; assay type: cell-based, Mycobacterium smegmatis; conditions: reduces plating efficiency more than 99.9%; minimal exposure to light
[5] = tested on: Bacillus subtilis; experiment: Minimal inhibitory concentration; assay type: cell-based
[6] = tested on: Y. pseudotuberculosis; assay type: cell-based
[7] = tested on: N. meningitidis; experiment: Disc diffusion sensitivity test; assay type: cell-based; conditions: disc ~50 μg MP
[8] = tested on: Y. enterocolitica; experiment: Disc diffusion sensitivity test; assay type: cell-based; conditions: disc ~50 μg MP
[9] = tested on: K. oxytoca; experiment: Disc diffusion sensitivity test; assay type: cell-based, Klebsiella oxytoca
[10] = tested on: E. aerogenes; experiment: Disc diffusion sensitivity test; assay type: cell-based, Enterobacter aerogenes
[11] = tested on: M. smegmatis LR222; experiment: Growth kinetics with Ga-PPIX; assay type: cell-based, Mycobacterium smegmatis; conditions: 1 μg/ml
[12] = tested on: S. aureus; experiment: Minimal bactericidal concentration; assay type: cell-based, Staphylococcus aureus; conditions: reduces plating efficiency more than 99.9%; minimal exposure to light
Summary of the method: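 Bacteria exposed to porphyrin derivatives above MIC as in the MIC assay, then plated on LB or LB+Tween 80 agar. MBC taken as the concentration reducing plating efficiency by more than 99.9%; light exposure kept minimal.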

[13] = tested on: Ps. aeruginosa; experiment: Disc diffusion sensitivity test; assay type: cell-based, Pseudomonas aeruginosa; conditions: disc ~50 μg MP; also: key: -: resistant; N: not determined
[14] = tested on: MDCK cells; experiment: Toxicity to mammalian cell monolayers; conditions: 0.5 mg in 1 mL DMEM; 24 hrs
[15] = tested on: E. faecalis; experiment: Disc diffusion sensitivity test; assay type: cell-based, Enterococcus faecalis; conditions: disc ~50 μg MP; also: key: -: resistant; N: not determined
[16] = tested on: L. monocytogenes; experiment: Minimal inhibitory concentration; assay type: cell-based; conditions: 20 to 24 hours (Table 5)
[17] = tested on: Y. enterocolitica; experiment: Minimal bactericidal concentration; assay type: cell-based; conditions: reduces plating efficiency more than 99.9%; minimal exposure to light
[18] = tested on: C. freundii; experiment: Disc diffusion sensitivity test; assay type: cell-based, Citrobacter freundii
[19] = tested on: Staphylococcus carnosus; experiment: Disc diffusion sensitivity test; assay type: cell-based; conditions: 50 μg disc
[20] = tested on: M. tuberculosis; assay type: cell-based, Mycobacterium tuberculosis
[21] = tested on: F. menigosepticum; experiment: Disc diffusion sensitivity test; assay type: cell-based, Flavobacterium meningosepticum
[22] = tested on: bacteria; assay type: cell-based
[23] = tested on: S. crevisieae; experiment: Disc diffusion sensitivity test; assay type: cell-based, Saccharomyces cerevisiae; conditions: S. cerevisiae; disc ~50 μg MP
[24] = tested on: mice; experiment: Preliminary toxicity testing on animals; assay type: in vivo
Protocol: (§1) To test for toxicity of MPs for mammalian cells, semiconfluent monolayers of four cell lines (MRC-5 primary human fibroblasts, Vero cells, MDCK cells and CaCO-2 cells) were incubated for 24 to 48 hours in the presence of 5, 25, 50, 250 and 400 μg/ml of Ga-PPIX dissolved in 0.02 M NaOH.
Two mice were each injected intraperitoneally with 0.5 mg gallium protoporphyrin IX and observed for 7 days. […] The animals were sacrificed, and their internal organs were microscopically examined for signs of inflammation.

[25] = tested on: Mycobacterium bovis (BCG); assay type: cell-based
[26] = tested on: M. avium
[27] = tested on: S. aureus; experiment: Disc diffusion sensitivity test; assay type: cell-based, Staphylococcus aureus
[28] = tested on: Streptococcus pyogenes JRS4; assay type: cell-based
[29] = tested on: S. aureus
[30] = tested on: H. pylori ATCC 43504; experiment: Minimal inhibitory concentration; assay type: cell-based, Helicobacter pylori; conditions: H. pylori ATCC 43504 (Table 5)
[31] = tested on: Gram-negative bacteria
[32] = tested on: Neisseria meningitidis; experiment: Minimal inhibitory concentration; assay type: cell-based
[33] = tested on: N. gonorrhoeae; experiment: Minimal inhibitory concentration; assay type: cell-based, Neisseria gonorrhoeae; conditions: N. gonorrhoeae MS111; 20 to 24 hours (Table 5)
[34] = tested on: CaCO-2 cells; experiment: Toxicity to mammalian cell monolayers; assay type: cell-based; conditions: 5 to 400 μg/ml; 24 to 48 hours
Protocol: as §1

[35] = tested on: E. coli; experiment: Disc diffusion sensitivity test; assay type: cell-based, Escherichia coli

C=CC1=C(C)C2=Cc3c(C=C)c(C)c4[n]3[Ga][n]3c(c(C)c(CCC(=O)O)c3=CC3=NC(=C4)C(C)=C3CCC(=O)O)=CC1=N2 [Ga-PPIX, Gallium (III) protoporphyrin IX chloride]
cytotoxic and/or morphological changes [1]: No visible cytotoxic and/or morphological changes were observed | growth in presence of Ga-PPIX [2]: completely prevented growth | diameter (mm) of the inhibition zone [3]: 20 mm | Minimal bactericidal concentration (MBC) [4]: 10 | MIC ([5]; B. subtilis 3G18, 20 to 24 hours (Table 5)): 0.2 µg/mL | MIC ([5]; Bacillus subtilis (Table 4)): < 0.1 µg/mL | MIC ([6]; Y. pseudotuberculosis YP66 (Table 4)): < 0.1 µg/mL | MIC ([6]; Y. pseudotuberculosis YP66 (Table 6), in µg/mL): 0.2-0.4 | diameter (mm) of the inhibition zone [7]: 24 mm | diameter (mm) of the inhibition zone [8]: 28 mm | diameter (mm) of the inhibition zone ([9]; K. oxytoca, disc ~50 μg MP): 21 mm | sensitive strains / strains tested (inhibition zones larger or equal 20 mm) ([9]; Klebsiella oxytoca, 50 μg disc): 1/1 | diameter (mm) of the inhibition zone ([10]; E. aerogenes, disc ~50 μg MP): 22 mm | sensitive strains / strains tested (inhibition zones larger or equal 20 mm) ([10]; Enterobacter aerogenes, 50 μg disc): 1/1 | growth in presence of Ga-PPIX [11]: completely prevented growth | Minimal bactericidal concentration (MBC) [12]: > 13 | diameter (mm) of the inhibition zone [13]: - | cytotoxic and/or morphological changes [14]: No visible cytotoxic and/or morphological changes were observed | diameter (mm) of the inhibition zone [15]: - | MIC [16]: 0.2 µg/mL | Minimal bactericidal concentration (MBC) [17]: 6.4 | diameter (mm) of the inhibition zone ([18]; C. freundii, disc ~50 μg MP): 22 mm | sensitive strains / strains tested (inhibition zones larger or equal 20 mm) ([18]; Citrobacter freundii, 50 μg disc): 4/4 | sensitive strains / strains tested (inhibition zones larger or equal 20 mm) [19]: 1/1 | MIC ([20]; M. tuberculosis Rv (Table 5)): 4 µg/mL | sensitivity (preliminary experiments) ([20]; pathogenic M. tuberculosis): sensitive | diameter (mm) of the inhibition zone ([21]; F. meningosepticum, disc ~50 μg MP): 22 mm | sensitive strains / strains tested (inhibition zones larger or equal 20 mm) ([21]; Flavobacterium meningosepticum, 50 μg disc): 1/1 | antibacterial activity [22]: widest spectrum and the highest level of antibacterial activity | diameter (mm) of the inhibition zone [23]: - | behavior, eating habits, stress, general condition ([24]; 0.5 mg intraperitoneally, 7 days): No change in behavior, eating habits and/or apparent stress or general condition were recorded | inflammation of internal organs ([24]; 0.5 mg intraperitoneally, 7 days, microscopy): No visible indications of inflammation were observed | peracute or acute effect on health and behavior ([24]; single intraperitoneal dose of 25 mg/kg): does not cause any peracute or acute effect on the health and behavior of mice | MIC ([25]; M. bovis (BCG) (Table 4)): 0.4 µg/mL | MIC ([25]; M. bovis (BCG), two weeks (Table 5)): 0.4 µg/mL | sensitivity (preliminary experiments) ([26]; M. avium): sensitive | MIC ([26]; M. avium ATCC15769 (Table 5)): 1 µg/mL | diameter (mm) of the inhibition zone ([27]; S. aureus, disc ~50 μg MP): 22 mm | sensitive strains / strains tested (inhibition zones larger or equal 20 mm) ([27]; Staphylococcus aureus, 50 μg disc): 9/9 | sensitivity [28]: resistant | spontaneous resistance [29]: did not produce spontaneous resistant mutants | MIC [30]: 0.2 µg/mL | spontaneous resistance [31]: gave rise to spontaneous resistant colonies | MIC ([32]; N. meningitidis IR1072, 20 to 24 hours (Table 5)): 0.1 µg/mL | MIC ([32]; Neisseria meningitidis (Table 4)): < 0.1 µg/mL | MIC [33]: 0.1 µg/mL | detachment or rounding of cells [34]: No detachment or rounding of cells was noticed | diameter (mm) of the inhibition zone ([35]; E. coli, disc ~50 μg MP): 24 mm | sensitive strains / strains tested (inhibition zones larger or equal 20 mm) ([35]; Escherichia coli, 50 μg disc): 16/18

Reference: US6066628A, “Non-iron metalloporphyrins and methods of use” (Emory University, priority 1998, dated 2000)
